Entries after “also recorded” stand apart in the source; their conditions may differ.

Results on 2 compounds are retold here after patent US20220154247A1, “ULTRASENSITIVE METHOD FOR DETECTING CELL DEATH” (priority 2019, published 2022).

Test [1] concerns MOLM14 cells. Description: Annexin V/propidium iodide labeling, flow cytometry, percentage of apoptotic cells. Type of test: cell-based. The settings on record: MOLM14 cells treated 16 h with 0-10 μM etoposide; no plateau with the PCR method. The protocol:
The cells are washed with PBS then resuspended in 1× binding buffer at a concentration of 1×10^6 cells/ml. 10 μl of Annexin V Pacific Blue and 10 μl of propidium iodide (Biolegend kit) are added to 200 μl of this cell suspension, which is then incubated for 15 minutes in darkness and at ambient temperature. After centrifugation at 300 g for 5 min, the supernatant is gently aspirated and 500 μl of 1× binding buffer are added.
These cells are then used in flow cytometry for determining the effect of the treatment and the number of cells in apoptosis. These cells are sorted depending on their annexin V and propidium iodide statuses in order to then carry out a PCR.
MOLM14 cells are left untreated (NT) or treated for 16 h with increasing concentrations of etoposide (0-0.62-1.25-2.5-5 or 10 μM).
The cells are labeled using the Pacific Blue™ Annexin V kit (Biolegend) according to the supplier's recommendations and then analyzed by flow cytometry (MACSQuant VYB—Miltenyi Biotec). The percentage of positive apoptotic cells (annexin V) is determined.

In test [2] the test system is MDA-MB-231 cells. Put plainly: DNA fragments in the cytoplasmic fraction detected by capillary electrophoresis (fragment analyzer). Particulars: MDA-MB-231 cells treated 24 h with 50 or 100 nM staurosporine, compared to untreated cells. It counts as cell-based.
Method: MDA-MB-231 cells were inoculated in 6 [MUT] at an amount of 3 million cells per 35 ml of DMEM high glucose medium (10% FCS, P/S). The next day, the MDA-MB-231 cells were treated with 50 nM and 100 nM staurosporine. The medium of the 2 untreated [MUT] was changed. After 24 h of treatment, the MDA-MB-231 cells were lysed with 2 ml of lysis buffer added to the [MUT] for 15 min at ambient temperature, then 2 ml were transferred into a tube and centrifuged at 2000 g for 5 min. The supernatant was then treated with RNaseA (20 μg/ml) and then with Proteinase K (used at 100 ug/ml), and placed at 70° C. for 15 min. The lysis buffer is a mixture of 50 mM 4-(2-hydroxyethyl)-1-piperazineethanesulfonic acid, 5 mM ethylenediaminetetraacetic acid, 150 mM sodium chloride, and 50 μg/ml digitonin. 1/10 volume of sodium acetate (NaAc) (3 M, pH 5.2) was then added. DNA was precipitated with 1 volume of isopropanol. The samples were left at ambient temperature for 15 min and then centrifuged at 20 000 g for 20 min at +4° C. The supernatant was aspirated and the pellet was washed with 75% ethanol. The pellet was dried and then resuspended in 30 μl of TE at pH 8 and analyzed in a fragment analyzer.

Consider `COc1cc([C@@H]2c3cc4c(cc3[C@@H](O[C@@H]3O[C@@H]5CO[C@@H](C)O[C@H]5[C@H](O)[C@H]3O)[C@H]3COC(=O)[C@H]23)OCO4)cc(OC)c1O` [etoposide], for which the “concentration from which the flow cytometry method (annexin V) reaches a detection plateau” value in test [1] was not below 2.5 µM. For the compound `CN[C@@H]1C[C@H]2O[C@@](C)([C@@H]1OC)n1c3ccccc3c3c4c(c5c6ccccc6n2c5c31)C(=O)NC4` [staurosporine], the “DNA fragments, a marker of cell death, in the cytoplasmic fraction” value in test [2] was “detected; also recorded: increase in the quantity of DNA fragments”.
